RP-LC retention time data for 60 molecules are collected here from the METLIN SMRT retention time set (Domingo-Almenara et al. 2019).

This data set is described as follows: gradient 5% acetonitrile 3 min, to 50% in 2 min, to 85% in 15 min, held 3 min, 100 µL/min. Conditions: column: Zorbax Extend-C18 2.1 x 50 mm; eluents: water / acetonitrile, 0.1% formic acid. In outline: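 Retention times of pure standards were taken from adduct peaks that were selected by computer and manually inspected. Over 3 months, mixtures of ~100 molecules were run by HPLC–quadrupole time-of-flight mass spectrometry in positive and negative ionization mode. The Zorbax Extend-C18 column (2.1 × 50 mm, 1.8 μm) ran at 100 μL/min in water and acetonitrile, each containing 0.1% formic acid, with 40 μL dead volume and 900 μL dwell volume.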
Molecule `O=C(NCc1csc(-c2ccccc2)n1)[C@H]1CCCN1C(=O)c1ccc(Br)cc1` showed an RP-LC retention time of 866 s. The value for `O=C1C(O)C2(CCCCC2)N1C1CCN(Cc2ccc(F)c(F)c2)CC1` (stereo not given) was 548 s.

For the molecule `O=C(NCCCOC(=O)c1ccccc1)c1ccncc1`, the RP-LC retention time stood at 613 s.

On to `CCCNC(=O)C1(CCO)CCN(c2ncccn2)C1` (stereo not given), for which the RP-LC retention time stood at 560 s. The value for `Cc1ccc2nc3c(c(C(=O)NC4CCCC4)c2c1)CCC3` was 690 s; that for `Nc1nc(N2CCC3(CC2)OCCO3)ncc1C(=O)NCc1ccccc1` was 705 s; that for `O=C(NCC(O)(c1ccccc1)C(F)(F)F)c1ccc2nsnc2c1` (stereo not given) was 853 s. Molecule `CCC(C)NC(=O)C1CCN(c2cnc(N3CCN(CC)CC3)nc2)CC1` (stereo not given) returned an RP-LC retention time of 575 s. Molecule `Cc1ccc(N2CCC(NC(=O)Nc3ccccc3Cl)C2=O)cc1C` (stereo not given) returned an RP-LC retention time of 909 s. `CNC(=O)Nc1cccnc1N1CCCCC1` gave an RP-LC retention time of 544 s. `Cc1cc(C)c(C(=O)N2CCCC(C(=O)NC3CCCCC3)C2)[nH]1` (stereo not given) displayed an RP-LC retention time of 809 s.

For the molecule `CCn1c(=O)sc2cc(S(=O)(=O)N3CCC(C(=O)Nc4ccc(C)c(F)c4)CC3)ccc21`, the RP-LC retention time was found to be 979 s.

The molecule `Cc1ccc(Cn2cccc2C(=O)C(=O)NCc2ccc(C)o2)cc1` yielded an RP-LC retention time of 1080 s. Turning to `CCOc1ccccc1-c1noc(CN2C(=O)COc3ccc(C)cc32)n1`, the RP-LC retention time is 1030 s. The value for `COC(=O)c1cnn(-c2ccc(C(=O)N3CCCC3)cc2)c1N` was 654 s; that for `CN(C)c1ccc(-c2nnc3sc(-c4ccc5ccccc5n4)nn23)cc1` was 1360 s; that for `CC(=O)N1CCc2cc(N3CC(C(=O)Nc4ccc(C)cc4C)CC3=O)ccc21` (stereo not given) was 786 s. `Cn1cc(S(=O)(=O)N2CCCCC2)cc1C(=O)Nc1ccc2c(c1)OCCO2` registered an RP-LC retention time of 917 s. The same measure for `Cc1nnc(-c2nnc(NCc3ccccc3F)c3ccccc23)o1`: 819 s; for `C=CCn1ccn(-c2ccc(F)c(Cl)c2)c(=O)c1=O`: 652 s; for `CCC(=O)Nc1ccc(-n2cnc(C(=O)NC3CCCCCC3)c2)nc1`: 759 s. `CC(C)CN1CCn2cc(S(=O)(=O)Nc3cccc(F)c3)cc2C1=O` returned an RP-LC retention time of 786 s. In turn, `O=C(Nc1cc(F)cc(F)c1)NC1CCN(c2ccc(F)cc2)C1=O` (stereo not given) yielded an RP-LC retention time of 895 s. The value for `COc1ccc(OC)c(CNC(=O)c2[nH]c3cc(C)sc3c2CN(C)C)c1` was 676 s; that for `CCOC(=O)c1cc(C2CC2)nc2c1c(=O)n(Cc1ccccc1F)c(=O)n2C` was 1140 s.

As to `CCOC(=O)c1cnc2nc(C)ccc2c1Nc1cc(OC)c(OC)c(OC)c1`, the RP-LC retention time was 671 s. The value for `c1ccc([C@@H]2NCCO[C@H]2COc2ccccn2)cc1` was 595 s. The same measure for `CC(C)(C)c1cc(N2CCN(c3ccccn3)CC2)n2ncc(-c3ccc(Cl)cc3)c2n1`: 1220 s; for `COC(=O)c1ccc2c(=O)n(-c3cc(OC)cc(OC)c3)c(N3CCC(C)CC3)nc2c1`: 1210 s; for `O=C(Nc1ccc(F)c(F)c1)C1CCN(c2cc(N3CCSCC3)ncn2)CC1`: 709 s. The value for `Cc1ccccc1CNC(=O)C1(C)CCCN(C(=O)Nc2ccccc2C(F)(F)F)C1` (stereo not given) was 1010 s; that for `CN(C)C(=O)c1cccnc1OC1CCN(C(=O)c2cccc(Br)c2)C1` (stereo not given) was 709 s; that for `CCc1nc(-c2cc3ccccc3nc2N2CCN(c3ccc(OC)cc3)CC2)no1` was 687 s. Molecule `CCc1cc(N2CCN(C(=O)c3ccc(N(C)C)cc3)CC2)nc2nnc(C)n12` had an RP-LC retention time of 599 s.

In the case of `O=C(NCC1(c2cccs2)CC1)c1ccsc1`, the RP-LC retention time turned out to be 791 s.

On to `CC(C)CC(NC(=O)Cc1ccc(Cl)cc1)C(=O)Nc1nc2ccccc2[nH]1` (stereo not given), for which the RP-LC retention time came out at 767 s. The same measure for `COc1ccccc1-c1nc(Cn2nnc(-c3nc(-c4ccccc4)no3)c2C)c(C)o1`: 1140 s. The value for `CCc1nc2c(NC(=O)CC3CCCCC3)cccn2n1` was 960 s.

Take `COc1ccc(C2CC(=O)c3cnn(-c4nc5ccccc5[nH]4)c3C2)c(OC)c1` (stereo not given): the RP-LC retention time was determined as 649 s.

`Cc1ccc(CC(=O)N2CCC3(CC2)NC(=O)c2cccc(Cl)c2N3)cc1` had an RP-LC retention time of 812 s.

In turn, `Cc1ccc(-c2noc(Cn3c(=O)n(-c4ccc(Cl)cc4)c(=O)c4sccc43)n2)cc1C` showed an RP-LC retention time of 1150 s.

Take `O=C(CCCn1c(=O)c2cccn2c2ccc(Br)cc21)NCc1ccccn1`: the RP-LC retention time was 646 s. Molecule `CSc1ccccc1NC(=O)C(=O)NCC(c1ccc2c(c1)CCCN2C)N1CCCC1` (stereo not given) showed an RP-LC retention time of 784 s.

Take `Cn1nc(C(=O)N2CCCCC2)c2c1CCN(C(=O)CCC(=O)N1CCCCCC1)C2`: the RP-LC retention time was determined as 668 s. With `CCN1C(=O)c2cc(S(=O)(=O)Nc3cc(C)cc(C)c3)ccc2Oc2cccnc21`, the RP-LC retention time stood at 1080 s. The value for `C#Cc1cccc(Nc2ncnc3cc(OC)c(OCCCCCCC(=O)NO)cc23)c1` was 707 s; that for `CCN1CCN(c2nc3cc(C(=O)OC)ccc3c(=O)n2-c2ccc3c(c2)OCO3)CC1` was 648 s.

As to `COc1ccc(NC(=O)Cn2cccc2-c2nnc(C3CCC3)o2)cc1Cl`, the RP-LC retention time came to 951 s. For the molecule `O=C(NC1CC1)c1ccc2ccnc(N3CCN(c4ccc(F)cc4)CC3)c2c1`, the RP-LC retention time was found to be 688 s. The value for `COc1ccccc1CNC(=O)Cn1c(=O)c2cc(-c3ccco3)nn2c2ncccc21` was 797 s.

`Cc1nc(CC(=O)Nc2ccc(F)cc2Cl)cs1` displayed an RP-LC retention time of 845 s. Take `CCn1c(=O)c2ccccc2n(Cc2nc(-c3cccc(Cl)c3)no2)c1=O`: the RP-LC retention time was determined as 1090 s. The value for `Cn1ncc2c(N3CCCC3)nc(C(=O)NCc3cccnc3)nc21` was 562 s.

Consider `Cc1c(CNCC2CCCO2)c(C(=O)O)c(C)n1Cc1cccc(Cl)c1` (stereo not given), for which the RP-LC retention time amounted to 717 s. Molecule `c1ccc(N2CCN(c3c4c(nc5ncnn35)CCC4)CC2)nc1` showed an RP-LC retention time of 563 s.

With `CC(C)(C)c1nnc(-c2ccc3c(c2)OCO3)o1`, the RP-LC retention time amounted to 900 s.

`CC(C)Cn1cc(CCNS(=O)(=O)c2ccc3c(c2)CCC3)c2cccnc21`: the RP-LC retention time is 1040 s. The value for `Cn1cc(C(=O)N2CCOCC2)cc(NC(=O)c2cccs2)c1=O` was 596 s. The same measure for `O=C(NCc1cccc(Cl)c1)C1CCN(C(=O)c2ncn3c2COC(c2ccccc2)C3)CC1` (stereo not given): 760 s; for `Cc1cnc(C)n1CC1CCN(S(=O)(=O)Cc2ccccc2)C1` (stereo not given): 618 s.
